Test results from patent US9006454B2, “Dihydroorotate dehydrogenase inhibitors” (Merck Serono S.A., priority 2009, dated 2015).

Assays:
DHODH = DHODH (Homo sapiens (Human), UniProt Q02127); experiment: DHODH activity assay (coupled enzyme assay, DCIP reduction, absorbance at 610 nm); type: biochemical; conditions: for inhibition at 10 µM: read-out: inh @ 10 uM hDHODH (%)
Procedure: The DHODH activity assay is a coupled enzyme assay in which oxidation of DHO and subsequent reduction of ubiquinone are stoichiometrically equivalent to the reduction of DCIP ([…]). The reduction of DCIP is accompanied by a loss of absorbance at 610 nm.
Buffer Preparation: 50 mM tris HCl, 150 mM KCl, and pH 8.0, 0.8% triton.
5 μL of Dimethyl sulfoxide or a compound of formula I in DMSO solution was added to the wells of a 96 well plate. Compounds of formula I were measured at 10 μM.
Protein along with buffer was added, so that the total volume including the DMSO was 87 μL. Compound and protein were incubated for half an hour at room temperature after mixing. 5 μL of 20 mM solution of L-Dihydroorotic acid, 5 μL of 2 mM solution of Decylubiquinone and 3 μL of 2 mM solution of 2,6-Dichloroindophenol sodium salt hydrate were added to the above solution (total assay volume 100 μL). The mixture was stirred for 2 min and absorbance was recorded at every 10 min at 610 nanometers.
Percent Inhibition is Calculated as Follows
Positive control contains DMSO, buffer, enzyme and substrates
No Enzyme reaction contains DMSO, buffer and substrates
IC50 determination: • A 2 mM DMSO stock of the compound of formula I to be examined was prepared. ⅓rd dilutions were made as follows:
5 μL of each stock of compound of formula I (solution indicated in column 4 of table) was used for each 100 μL assay. Therefore, 5 μL of the 2 mM stock provided 100 μL of 100 μM solution of compound of formula I, when made up with buffer, protein and substrate. See also: Ulrich et al. (2001) Eur. J. Biochem. 268, 1861-1868.

Jurkat cells = experiment: Measurement of cell proliferation (Jurkat cell), XTT assay; type: cell-based; conditions: for inhibition at 1 µM / EC50: Homo sapiens, Jurkat; for inhibition at 1 µM: read-out: % inh Jurkat_cells @ 1 uM (%); for EC50: 72 h, XTT cell viability
Procedure: See also Roehm, N et al [1991] An improved colorimetric assay for cell proliferation and viability utilizing the tetrazolium salt XTT. J. Immunol. Methods 142:257-265.
Culture Jurkat cells in T-25 flasks at a density of 0.2×10^6/ml 2-3 days before the day of experiment set up.
Centrifuge Jurkat T-cell suspension at 1200 rpm for 10 minutes and resuspend cells again in fresh RPMI medium with 10% FBS.
Count the cells and dilute suspension to a density of 2×10^6 cells/ml. Seed 50 μL of this suspension in each well of a 96 well plate (100,000 cells per well). Keep the edges of the plate empty to avoid evaporation.
Serially dilute DMSO stocks of compounds to get different concentrations for an EC50 curve. 50 μL of compound diluted in media (2× concentration required in well) is added to each well. DMSO concentration should be kept constant at 0.25-0.5% for all wells.
Typically, for all compounds with IC50<1 μM, compound concentration can start at 10 μM followed by half log dilutions for a total of 8-10 concentrations. Each concentration has to be tested in triplicate.
Include controls such as cells without compound (with same DMSO concentration as compound wells), and media control
Incubate the 96 well plate in a CO2 incubator at 37° C. for 72 hrs before determining cell viability using XTT assay
XTT assay: to each well, add 50 μL of 1 mg/ml XTT solution with 20 μl of PMS/mL. Read the plates after 2 hours at 465 nm using the spectrophotometer. XTT reading for media without cells is used as background reading.
Calculate % cell viability assuming that the cells without compound are 100% viable.
Plot % cell viability as a function of concentration and determine EC50 by using software such as Graph Pad Prism to fit the curve.

Chain of DHODH (Q02127 whole entry): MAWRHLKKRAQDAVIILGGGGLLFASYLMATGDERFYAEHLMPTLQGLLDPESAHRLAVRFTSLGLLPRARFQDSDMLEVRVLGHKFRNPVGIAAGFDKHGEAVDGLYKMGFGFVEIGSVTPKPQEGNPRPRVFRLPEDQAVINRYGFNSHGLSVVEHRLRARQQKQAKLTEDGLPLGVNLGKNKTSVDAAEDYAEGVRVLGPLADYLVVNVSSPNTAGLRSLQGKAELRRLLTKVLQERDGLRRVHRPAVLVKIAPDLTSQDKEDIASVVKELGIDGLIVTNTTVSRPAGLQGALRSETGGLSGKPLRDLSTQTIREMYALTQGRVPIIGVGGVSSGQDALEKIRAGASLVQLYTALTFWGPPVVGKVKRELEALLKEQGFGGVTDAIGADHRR

IC50 (DHODH) [nM] | inhibition at 10 µM (DHODH; compound at 10 uM) [%] | inh @ 10 uM hDHODH (%) (DHODH; compound at 10 uM) | EC50 (Jurkat cells) [nM] | SMILES | inhibition at 1 µM (Jurkat cells; compound at 1 uM) [%] | % inh Jurkat_cells @ 1 uM (%) (Jurkat cells; compound at 1 uM)
155 | 91 |  |  | Cc1cc(C(=O)O)c2nc(-c3ccc(-c4cnn(Cc5ccccc5)c4)cc3)[nH]c2c1 [I111] | 62 | 
2320 |  | 86.4 |  | O=C(O)c1cc(Cl)cc2c1N=C(c1ccc(-c3ccccc3)cc1)C2 [I51] |  | 39.5
38 | 97.3 |  | 238 | O=C(O)c1cccc2[nH]c(-c3c(F)c(F)c(-c4ccccc4)c(F)c3F)nc12 [I21] | 92.4 | 
1200 | 88 |  |  | O=C(O)c1cccn2nc(-c3ccc(-c4ccccc4)cc3)nc12 [I122] | 55.4 | 
 | 16.1 |  |  | O=C(O)c1cc(F)cc2nc(-c3ccc4[nH]ccc4c3)[nH]c12 [I36] | 7.7 | 
1180 | 97.7 |  |  | COc1cc(-c2ccccc2)ccc1-c1nc2c(C(=O)O)cc(C)cc2[nH]1 [I46] | 57.1 | 
 | 40.7 |  |  | Cc1cc(C(=O)O)c2nc(-c3ccc(-c4ccccc4)s3)[nH]c2c1 [I191] | 17.6 | 
 | 32.3 |  |  | Cc1cc(-c2nnc(O)o2)c2nc(-c3c(F)c(F)c(-c4ccccc4)c(F)c3F)[nH]c2c1 [I159] | 13.4 | 
 | 39.8 |  |  | Cc1cc(C(=O)O)c2nc(-c3c(F)c(F)c(Oc4ccccc4)c(F)c3F)[nH]c2c1 [I189] | 3 | 
2240 | 65.1 |  |  | Cc1cc(C(=O)O)c2nc(-c3ccc(-c4ccc(Oc5ccccc5C(=O)O)cc4)cc3)[nH]c2c1 [I137] | 31 | 
78 | 111 |  |  | Cc1cc(C(=O)O)c2nc(-c3c(F)c(F)c(-c4ccc(CN5CCCCC5)cc4)c(F)c3F)[nH]c2c1 [I83, 6-Methyl-2-(2,3,5,6-tetrafluoro-4′-piperidin-1-ylmethyl-biphenyl-4-yl)-1H-benzoimidazole-4-carboxylic acid] | 93 | 
401 | 108 |  |  | Cc1cc(C(=O)O)c2[nH]c(-c3ccc(-n4c(C)ccc4C)cc3)nc2c1 [I121] | 70.7 | 
56 | 104 |  |  | Cc1cc(C(=O)O)c2nc(-c3c(F)c(F)c(-c4ccc(NC(=O)C5CCCN5)cc4)c(F)c3F)[nH]c2c1 (stereo not shown) [I85] | 93.4 | 
373 | 93.9 |  | 105 | Cc1cc(C(=O)O)c2[nH]c(-c3ccc(-c4ccccc4F)cc3)nc2c1 [I26] | 75.9 | 
15900 | 53 |  |  | Nc1nnc(-c2cccc3[nH]c(-c4ccc(-c5ccccc5)cc4)nc23)s1 [I108] | 11 | 
4380 | 75.5 |  |  | Cc1cc(C(=O)O)c2nc(-c3ccc(Oc4ccccn4)cc3)[nH]c2c1 [I71, 6-Methyl-2-[4-(pyridin-2-yloxy)-phenyl]-1H-benzoimidazole-4-carboxylic acid] | 28.3 | 
3800 | 76.1 |  |  | O=C(O)c1cccn2cc(-c3ccc(-c4ccccc4)cc3)nc12 [I138] | 44.8 | 
 | 53.2 |  |  | Cc1cc(C(=O)O)c2nc(C#Cc3ccc(OCc4ccccc4)cc3)[nH]c2c1 [I166] | 13.4 | 
2030 | 85 |  |  | Cc1cc(C(=O)O)c2nc(-c3ccc(-c4ccc(Oc5ccccc5C#N)cc4)cc3)[nH]c2c1 [I112] | 49 | 
350 | 102 |  |  | Cc1cc(C(=O)O)c2nc(-c3ccc(-c4ccc(O)cc4)cc3)[nH]c2c1 [I117] | 76 | 
13.6 | 95.8 |  |  | Cc1cc(C(=O)O)c2[nH]c(-c3c(F)c(F)c(-c4cccc(OCc5ccccc5)c4)c(F)c3F)nc2c1 [I105] | 91.9 | 
344 | 100 |  |  | Cc1cc(C(=O)O)c2[nH]c(-c3ccc(-c4c(F)cccc4F)cc3)nc2c1 [I76, 2-(2′,6′-Difluoro-biphenyl-4-yl)-6-methyl-3H-benzoimidazole-4-carboxylic acid] | 83.5 | 

IC50 (DHODH) [nM] | inhibition at 10 µM (DHODH; compound at 10 uM) [%] | inh @ 10 uM hDHODH (%) (DHODH; compound at 10 uM) | EC50 (Jurkat cells) [nM] | SMILES | inhibition at 1 µM (Jurkat cells; compound at 1 uM) [%] | % inh Jurkat_cells @ 1 uM (%) (Jurkat cells; compound at 1 uM)
 | 47.2 |  |  | Cc1cc(C(=O)O)c2nc(-c3ccc(-c4ccc(OCCCN5CCCC5)cc4)cc3)[nH]c2c1 [I152] | 23.8 | 
 | 41.5 |  |  | O=C(O)c1cccc2[nH]c(-c3c(F)c(F)c(Oc4ccccc4)c(F)c3F)nc12 [I188] | 17 | 
1630 | 82.9 |  |  | Cc1cc(C(=O)O)c2nc(-c3ccc(-c4ccc(OCCCN5CCCCC5)cc4)cc3)[nH]c2c1 [I88] | 40.3 | 
965 | 86.7 |  |  | O=C(O)c1cccc2nc(-c3ccc(-c4ccccc4F)cc3F)[nH]c12 [I24] | 53.2 | 
2870 | 80.3 |  |  | O=C(O)c1cccc2[nH]c(-c3ccc(Oc4ccccc4)cc3)nc12 [I10] | 35.1 | 
 | 40.3 |  |  | Cc1cc(C(=O)O)c2nc(-c3ccc(-c4nc5ccccc5s4)cc3)[nH]c2c1 [I47] | 17.3 | 
2200 | 66.2 |  |  | CONC(=O)c1cc(C)cc2nc(-c3c(F)c(F)c(-c4ccccc4)c(F)c3F)[nH]c12 [I98] | 30.1 | 
441 | 89.8 |  |  | O=C(O)c1cccc2[nH]c(-c3c(F)c(F)c(-c4ccsc4)c(F)c3F)nc12 [I144] | 68.2 | 
 | 39.9 |  |  | O=C(O)c1cccc2[nH]c(-c3ccc(-c4ccc(OC(F)(F)F)cc4)cc3)nc12 [I16] | 18 | 
1230 | 87 |  |  | Cc1cc(C(=O)O)c2nc(-c3ccc(-c4ccc(OCc5ccccc5)cc4)cc3)[nH]c2c1 [I143] | 42.2 | 
78 | 89.7 |  |  | Cc1cc(C(=O)O)c2c(c1)nc(-c1c(F)c(F)c(-c3ccc(O)cc3)c(F)c1F)n2CCO [I94] | 82.5 | 
795 | 93.9 |  | 645 | O=C(O)c1cccc2[nH]c(-c3ccc(-c4ccccc4)cc3)nc12 [I1] |  | 
 | 94.1 |  |  | Cc1cc(C(=O)O)c2nc(-c3ccc(-c4ccc(NC(=O)[C@@H]5CCCN5)cc4)cc3)[nH]c2c1 [I89] | 52 | 
21 | 96.4 |  | 13 | Cc1cc(C(=O)O)c2nc(-c3c(F)c(F)c(-c4cc(F)cc(F)c4)c(F)c3F)[nH]c2c1 [I146] | 89.9 | 
26 | 108 |  |  | O=C(O)c1cccc2nc(-c3c(F)c(F)c(-c4cccc(OCc5ccccc5)c4)c(F)c3F)[nH]c12 [I107] | 99 | 
 | 72 |  |  | O=C(O)c1cccc2[nH]c(-c3ccc(-c4ccccc4OCc4ccccc4)cc3)nc12 [I169] | 22 | 
3410 | 74.2 |  |  | Cc1cc(C(=O)O)c2[nH]c(-c3ccc(Oc4ccccc4)cc3)nc2c1 [I67] | 29.3 | 
314 | 95.6 |  |  | Cc1cc(C(=O)O)c2nc(-c3c(F)c(F)c(-c4ccc(F)c(F)c4)c(F)c3F)[nH]c2c1 [I145] | 75.8 | 
 | 80.4 |  |  | O=C(O)c1cccc2[nH]c(-c3ccc(-c4cccc(F)c4F)cc3)nc12 [I60] | 33.4 | 
 | 13.7 |  |  | O=C(O)c1cc(F)cc2nc(-c3ccc4cc[nH]c4c3)[nH]c12 [I37] | 6.9 | 
 | 69.6 |  |  | O=C(O)c1cccc2nc(-c3ccc(-c4ccc(F)cc4F)cc3)[nH]c12 [I32] | 21.1 | 
